Measured values published in patent US8377918B2 (ACC Therapeutics Inc, priority 2005, dated 2013).

Tests used:
Colo-205 cells = experiment: MTT cell proliferation assay, Colo-205 colon cancer cells; format: cell-based, human; conditions: Colo-205, apigenin alone, 24 h
Procedure: FIG. 17. […] A, the prostate cancer cells PC-3 and DU145; B, colon cancer cells Colo-205 and HCT-116; C, lung cancer cells A549 and H460 cells were plated at 1×10^4 cells per well in a 96 well plate in 100 μl of media. […] FIG. 20. […] A, the prostate cancer cells PC-3 and DU145; B, colon cancer cells Colo-205 and HCT-116; C, lung cancer cells A549 and H460 cells were plated at 1×10^4 cells per well in a 96 well plate. […] Cell proliferation was examined by MTT assay. […] FIG. 22. […] A, colon cancer cells Colo-205 and HCT-116; B, lung cancer cells A549 and H460 cells were plated at 1×10^4 cells per well in a 96 well plate the day before the treatment. […] Cell proliferation was examined by MTT assay. […] FIG. 24. […] The IC50 values for inhibiting cell proliferation were calculated from cell proliferation assay as described above.

HCT-116 cells = experiment: MTT cell proliferation assay, HCT-116 colon cancer cells; format: cell-based, human; conditions: HCT-116, apigenin alone, 24 h
Procedure: FIG. 17. […] A, the prostate cancer cells PC-3 and DU145; B, colon cancer cells Colo-205 and HCT-116; C, lung cancer cells A549 and H460 cells were plated at 1×10^4 cells per well in a 96 well plate in 100 μl of media.

H460 cells = experiment: MTT cell proliferation assay, H460 lung cancer cells; format: cell-based, human; conditions: H460, apigenin alone, 24 h
Procedure: FIG. 17. […] A, the prostate cancer cells PC-3 and DU145; B, colon cancer cells Colo-205 and HCT-116; C, lung cancer cells A549 and H460 cells were plated at 1×10^4 cells per well in a 96 well plate in 100 μl of media. […] FIG. 18. […] A and B, the prostate cancer cells PC-3 and DU145; C, colon cancer cells Colo-205 and HCT-116; D, lung cancer cells A549 and H460 cells were plated at 1×10^4 cells per well in a 96 well plate in 100 μl of media. […] The cell proliferation was analyzed by MTT assay. […] FIG. 22. […] A, colon cancer cells Colo-205 and HCT-116; B, lung cancer cells A549 and H460 cells were plated at 1×10^4 cells per well in a 96 well plate the day before the treatment. […] Cell proliferation was examined by MTT assay. […] FIG. 25.

normal human cells = experiment: Apoptosis of normal human cells (GM847 fibroblasts); format: cell-based; conditions: at up to 40 μM apigenin
Procedure: (§1) FIG. 1. […] (A) A2780/CP70 cells and human fibroblast GM847 cells were seeded in 96-well plate at 4×10^3 cells per well and incubated overnight. […] The cells were incubated for 24 h. Cell proliferation was determined by MTT reduction. […] Cells were trypsinized, harvested, washed once with PBS buffer, and stained using the Annexin-V-Folus Kit as per the manufacture's instructions. […] After incubation, all cells were collected and total DNA was isolated. Eight (8) μg of DNA was resolved on 1.8% agarose gel. […] (D) Treatment of GM847 cells was the same as that of 5D. […] Cleavage of caspase-3 and PARP was detected by western-blot.

[1] = system: human fibroblast GM847 cells; experiment: MTT proliferation, human fibroblast GM847 cells; format: cell-based; conditions: same experimental conditions as cancer cells, 24 h
Procedure: as §1

A2780/CP70 tumors [2] = experiment: Secondary tumor growth in chicken embryos; format: in vivo, chicken embryo; conditions: 7.5 μM apigenin, 9 days
Procedure: FIG. 2. […] Ovarian cancer cells A2780/CP70 were planted into 9-days old fertilized chicken embryos and incubated for 9 days to allow the tumor formation. The formed tumors were harvested and cut into pieces of 9-10 mg weight, and immediately implanted into another 9-day old fertilized chicken embryo and incubated for 9 days. […] In 9 days, the secondary tumor was cut and weighed.

A2780/CP70 tumors [3] = experiment: New blood vessel formation in tumors on CAM; format: in vivo, chicken embryo; conditions: 15 μM apigenin, 100 h
Procedure: FIG. 7. […] A2780/CP70 ovarian cancer cells were mixed with Matrigel and implanted onto the chorioallantoic membrane (CAM) of a 9-day old embryo. In 100 h, the tumor was cut off and the newly-formed blood vessels on the back of the tumor were determined.

[4] = system: HIF-1 expression in OVCAR-3 cells; experiment: HIF-1 immunoblotting, OVCAR-3; format: cell-based, human
Description: FIG. 5. […] The cells treated with solvent alone were used as a control. HIF-1α and HIF-1β protein levels were detected by immunoblotting as described in Materials and Methods. GAPDH was used as an internal control to test the loading and transfer efficiency.

[5] = system: VEGF expression in OVCAR-3 cells; experiment: VEGF ELISA of supernatants, OVCAR-3; format: cell-based, human; conditions: OVCAR-3, 15 h
Procedure: FIG. 6. […] OVCAR-3 and A2780/CP70 cells were plated in 12-well plates and cultured to 90% confluence. […] The concentrations of VEGF in the supernatants were determined by ELISA method as described in Materials and Methods. The data are mean±SE from three independent experiments and each experiment was performed with triplicate cultures.

lung cancer cell A549 = experiment: A549 cell counting proliferation; format: cell-based, human; conditions: A549, 10 and 20 μM, 24 and 48 h
Procedure: FIG. 12. […] A, A549 cells were seeded at 5 ×10^5 cells/well on a 24-well plate, and cultured overnight the day before the treatment. […] After 24 and 48 h, aliquots of cells were counted in triplicate using a hemocytometer to obtain cell number and proliferation rate.

[6] = system: VEGF transcriptional activity in A549 cells; experiment: VEGF reporter luciferase assay in A549; format: cell-based, human; conditions: A549, 5, 10, and 20 μM, 24 h
Procedure: FIG. 13. […] A549 cells were seeded on a six-well plate. When they reached 60 to 70% confluence, the cells were transfected using Lipofectamine reagent. A, A549 cells were cotransfected with 1 μg of pGL-StuI VEGF reporter and 0.3 μg of β-gal plasmid as described. […] Cells were then lysed and the supernatants were used to assay Luc and β-gal activities. The relative luciferase activities in the cell extracts were assayed by the ratio of Luc/β-gal activity and normalized to the value in the solvent DMSO control. B, cells were cotransfected with 1 μg of pMAP11wt VEGF reporter and 0.3 μg of β-gal plasmid as described. Cells were treated with different doses of apigenin as described above. C, the cells were transfected with pMAP11mut VEGF reporter (with 3-bp substitution of pMAP11wt), and treated as above “B”.

## O=c1cc(-c2ccc(O)cc2)oc2cc(O)cc(O)c12 [apigenin, 4′,5,7,-trihydroxyflavone]
Colo-205 cells
  effect on cell proliferation: inhibited the proliferation
HCT-116 cells
  effect on cell proliferation: inhibited the proliferation
H460 cells
  effect on cell proliferation: inhibited the proliferation
Normal human cells
  induction of apoptosis of normal human cells: did not induce apoptosis
[1]
  effect on human normal fibroblast cells: little effects
A2780/CP70 tumors [2]
  effect on tumor growth (secondary tumor weight): inhibited tumor growth
A2780/CP70 tumors [3]
  effect on new blood vessel formation (angiogenesis) in tumors: inhibited new blood vessel formation
[4]
  effect on HIF-1 expression: inhibited HIF-1 expression
[5]
  effect on expression of VEGF: inhibited the expression of VEGF
Lung cancer cell A549
  effect on lung cancer cell proliferation: significantly inhibits
[6]
  effect on VEGF transcriptional activation: dramatically suppresses
